Reference: US20130130306A1, “ZN (II) BASED COLORIMETRIC SENSOR AND PROCESS FOR THE PREPARATION THEREOF” (COUNCIL OF SCIENTIFIC & INDUSTRIAL RESEARCH, priority 2010, published 2013)

Assays:
[1] = Spectrophotometric titration, inclusion complex formation with α-CD; type: binding; settings: α-CD 0-2.3 mM
Procedure: Preliminary spectral studies reveal that absorption maxima for L.Zn (Scheme 1, Formula 1A) (463 nm) tend to shift to shorter wavelength (458 nm) on addition of aqueous solution of α-CD (0-2.3 mM) in excess to the […] solution of L.Zn (Scheme 1, Formula 1A). Formation of host-guest type inclusion complex on addition of trans-1,2-bis-(4-pyridyl)ethylene, 4,4′-azopyridine (AZP) and some related bipyridine/biphenyl molecules in α-CD is reported by several researcher (Shukla, A. D.; Bajaj, H. C.; Das, A. Angew. Chem. Int. Ed. 2001, 40, 446.; Shukla, A. D.; Bajaj, H. C., Das, A. Nat. Acad. Science, 2002, 114, 431.; Beer, A. J.; Macartney, D. H. Inorg. Chem. 2000, 39, 1410.; Macartney, D. H.; Waddling, C. A.; Inorg. Chem. 1994, 33, 5912.; Philip, D.; Stoddart, J. F. Angew. Chem. Int. Ed. 1996, 35, 1154). It is also reported that inclusion in these compounds in the CD cavity influences the HOMO-LUMO energy gap and there by the absorption spectral bands-though the perturbation of the energy levels are not reported to be an appreciable one. Thus, in this present study, the observed shift of 5 nm could be attributed to the inclusion phenomena and the formation of a pseudo-rotaxane complex.
General formula that was used for calculating the binding constants from UV-vis titrations is given below:
Binding Constant,K=[L.Zn.CD]/{[L.Zn]free[CD]free} (5) […]

[2] = system: Bacillus megaterium (Gram +ve); assay: Staining of Gram +ve bacteria, light microscopy; type: cell-based; set-up: change in color of bacterial stains: dose or concentration left out as unconfirmed
Procedure: The isolates of Saccharomyces sp. were cultured in GYE (glucose yeast extract agar) media, Bacillus sp. in Nutrient broth, and Pseudomonas sp. in King's B medium for 24 hour at 37° C. […] of this was taken and was allowed to incubate at 30 to 40° C. along with 100 μl of L.Zn (Scheme 1, Formula 1A) (1.16×10^−4 M) solution. The samples were fixed overnight at room temperature 25-30° C. with 2% (v/v) glutaraldehyde in 0.1 M phosphate buffer at pH 7.5. The samples were then washed with 0.1 M phosphate buffer (pH 7.5) at room temperature 25-30° C. for 1 hour. Post-fixation was carried out in 2% (w/v) osmium tetroxide (OsO4) in the same buffer and was washed once with 0.1 M phosphate buffer for 20 minutes. […]
We also explored the possibility of using L.Zn/L.Zn.α-CD as the staining agent for prokaryotes (Gram +ve and Gram −ve bacterial cells). […] Changes on the cell surfaces on binding of the dye, L.Zn (Scheme 1, Formula 1A) were also evident from the SEM images recorded for Gram −ve and Gram +ve bacteria, in absence and presence of staining agent (FIGS. 11C to 11F). […] The growth profile of Eukaryotic Yeast cells (Saccharomyces cerevisiae) and Prokaryotic bacterial cells ([…]) in an aqueous culture medium in absence and presence of L.Zn (Scheme 1, Formula 1A) are shown in FIG. 12. […]

[3] = Lipophilic nature of the dye

CN(C)c1ccc(N=Nc2ccc(S(=O)(=O)N3CCCNCCNCCCNCC3)cc2)cc1.O=[N+]([O-])[O-].O=[N+]([O-])[O-].[Zn+2] [L.Zn]
association constant of inclusion complex with α-CD ([1]; aqueous solution): 255 (+15) M^−1
association constant of inclusion complex with α-CD ([1]; aqueous solution (as printed in b187)): 255 (±15) M^1
growth of colonies streaked on nutrient agar plates after incubation with sensor ([2]; Bacillus species in Nutrient broth, sensor 1.0×10^−4 M, 25° C., 10 mins): colonies of the test microbes grew
change in color of bacterial stains ([2]; light microscopy): distinct change in color
lipophilic nature [3]: non-lipophilic
